Measurements reported in US9017963B2, “Method for detecting microorganisms” (Woundchek Laboratories (US), Inc., priority 2002, dated 2015).
Primed or numbered codes have the meaning given here. No end group written: not given here. *: point of attachment. Dabcyl″ = label, CN(C)c1ccc(/N=N/c2ccc(C(=O)*)cc2)cc1; EDANS = O=S(=O)(O)c1cccc2c(NCCN*)cccc12; Dabcyl′ = not defined here; pyrene = label

Tests used:
[1] = test system: lipases secreted by bacteria (Staphylococcus epidermidis); assay: Lipase assay, S. epidermidis culture supernatant; format: biochemical; settings: 20 mM Tris (pH 8.5), 37° C., 60 minutes
Description: (§1) A culture of each of the following bacterial species was grown to saturation in Brain Heart Infusion (BHI) broth at 37° C. with vigorous shaking (˜200 rpm), using methods that are standard in the art: Staphylococcus aureus; Staphylococcus epidermidis; Serratia marcescens; Streptococcus salivarius; Escherichia coli; Pseudomonas aeruginosa; and Enterococcus faecalis. After overnight growth (to saturation), a 1 mL sample of each culture was obtained, and the cells were removed from the culture supernatant by centrifugation at 12,000×g for 5 minutes. The remaining culture supernatants were stored on ice until required (less than one hour). The bacteria were assayed for the presence or absence of specific enzymes as described below. Alternatively, the bacterial cells are not separated from the culture supernatant, but rather, the assay is carried out on a sample containing the cells still in suspension in their culture broth. […]
(§2) To perform the lipase assay, 80 μL of reaction buffer, 10 μL of culture supernatant from each bacteria species described in Example 2, and 10 μL of assay substrate were added to a well of a 96-well microplate. […] At 5 minute intervals during the incubation period, absorbance at 415 nm, indicating modification of the enzyme by a lipase secreted by the cells, was automatically measured using a BioRad Benchmark Microplate reader.

lipase from S. aureus = assay: Lipase assay, S. aureus culture supernatant; format: biochemical, Staphylococcus aureus; settings: 20 mM Tris (pH 8.5), 37° C., 60 minutes
Description: A culture of each of the following bacterial species was grown to saturation in Brain Heart Infusion (BHI) broth at 37° C. with vigorous shaking (˜200 rpm), using methods that are standard in the art: Staphylococcus aureus; Staphylococcus epidermidis; Serratia marcescens; Streptococcus salivarius; Escherichia coli; Pseudomonas aeruginosa; and Enterococcus faecalis. After overnight growth (to saturation), a 1 mL sample of each culture was obtained, and the cells were removed from the culture supernatant by centrifugation at 12,000×g for 5 minutes. The remaining culture supernatants were stored on ice until required (less than one hour). The bacteria were assayed for the presence or absence of specific enzymes as described below. Alternatively, the bacterial cells are not separated from the culture supernatant, but rather, the assay is carried out on a sample containing the cells still in suspension in their culture broth.
To test for the presence or absence of lipases secreted by bacteria, the lipase substrate p-nitrophenyl caprate, obtained from Sigma (Catalog No.: N-0252). This lipase substrate consists of capric acid, a ten-carbon lipid molecule, esterified with the dye para nitrophenol (detectable label) as described above. The substrate was dissolved in isopropyl alcohol at a concentration of 8 mM (2.35 mg/mL). A reaction buffer containing 20 mM Tris (pH 8.5) was also prepared.
To perform the lipase assay, 80 μL of reaction buffer, 10 μL of culture supernatant from each bacteria species described in Example 2, and 10 μL of assay substrate were added to a well of a 96-well microplate. Each bacterial species was assayed individually, and the assays were performed in triplicate. The 96-well plate was incubated at 37° C. for 60 minutes. At 5 minute intervals during the incubation period, absorbance at 415 nm, indicating modification of the enzyme by a lipase secreted by the cells, was automatically measured using a BioRad Benchmark Microplate reader.
However, it is known that bacterial lipases do show strong substrate specificity with regard to the chain length of the fatty acid they hydrolyze (Van Kampen et al., BBA, 1544: 229, 2001) and to the location in a lipid layer. The degree that the environment of the substrate affects the efficiency of hydrolysis depends on the particular enzyme. To test this for the lipase from S. aureus, the above-described lipase assay was performed in the presence of several detergent and solvent additives. The reaction buffer consisted of 20 mM Tris (pH 8.3) with 1 mM ZnSO4 added, plus either nothing additional (control), 20% methanol, 20% DMSO, or 10 mM Triton X-100.

[2] = test system: Serratia marcescens, Streptococcus salivarius, Escherichia coli, Pseudomonas aeruginosa, Enterococcus faecalis supernatants; assay: Lipase assay, other bacterial supernatants; format: biochemical; settings: other bacterial samples; 20 mM Tris (pH 8.5); 37° C., 60 minutes
Description: as §1, §2

[3] = test system: Staphylococcus epidermidis; assay: Glass microfiber filter biosensor, S. epidermidis culture; format: biochemical; settings: Quadrant #2, S. epidermidis; 37° C., 30 minutes
Description: (§3) An example of a biosensor for the detection of an enzyme secreted by Staphylococcus epidermidis (S. epidermidis), and therefore, for the detection of Staphylococcus epidermidis now follows. A […] solution of 20 mM p-nitrophenyl Caprate (in ispropanol) was applied to a 2.5 cm glass microfiber filter (Whatman GF/A). The isopropanol was allowed to evaporate at room temperature for 30 minutes, leaving the substrate bound to the filter. After the filter was completely dry, a single drop of bacterial culture was applied to each quadrant of the filter. In Quadrant #1, Staphylococcus aureus was applied; in Quadrant #2, Staphylococcus epidermidis was applied; in Quadrant #3 Streptococcus salivarius was applied, and in Quadrant #4, media was applied as a control. The filter was incubated at 37° C. for 30 minutes, and detection of a yellow dye, indicating modification of the substrate by an enzyme in the bacteria was detected.

Staphylococcus aureus = assay: Glass microfiber filter biosensor, S. aureus culture; format: biochemical; settings: Quadrant #1, S. aureus; 37° C., 30 minutes
Description: as §3

Streptococcus salivarius = assay: Glass microfiber filter biosensor, S. salivarius culture; format: biochemical; settings: Quadrant #3, S. salivarius; 37° C., 30 minutes
Description: as §3

[4] = test system: Pseudomonas aeruginosa protease; assay: Protease assay for P. aeruginosa (strains P1, PA14, ZK45 supernatants); format: biochemical; settings: 20 mM tris (pH 7.5), 150 mM NaCl, 37° C.
Description: The peptide substrates used here were labeled with the fluorescent probe edans (5-((2-aminoethyl)amino)naphthalene-1-sulfonic acid) and the quencher dye molecule dabcyl ((4-(4-(dimethylamino)phenyl)azo)benzoic acid). The labeled peptide sequences used were as follows: […]

P. aeruginosa protease = assay: Protease assay on porcine wound fluid; format: biochemical, Pseudomonas aeruginosa; settings: porcine wounds infected with 10^3, 10^4 or 10^5 bacteria, 3 days; 1 hour reaction; FIG. 18
Description: In order to test for the presence of enzymatic activity in a wound bacterial protease assay for detection of P. aeruginosa was performed on samples obtained from wound infections made in pigs. […] Each of the resulting cultures was diluted into sodium phosphate buffer at pH 7.2 with 150 mM NaCl (PBS buffer) to give samples containing 10^5, 10^4, and 10^3 bacteria total in 100 μL. Immediately after surgery to create a series of partial thickness wounds was performed on the pigs, the wound surfaces were treated with calcium chloride solution for a short period and then patted dry. A buffer solution containing diluted bacterial cultures was placed on the surface of the wounds. The wounds were then covered and the infections were allowed to grow for a period of 3 days. After the dressing was removed from the pigs and the wounds were scored for degree of inflammation, 100 μL of PBS buffer was added to the wound surface and the extracted wound fluid was recovered by pipet. Each of the samples was split in half and 50 μL were used to inoculate BHI plates and the other 50 μL were placed in plastic tubes and immediately frozen at −80° C.
The buffer used to dilute the wound fluid in the protease assays was PBS. […] The reaction was followed on a fluorimetric plate reader using an excitation wavelength of 355 nm and an emission wavelength of 528 nm.

[5] = test system: DNA metabolism enzymes (exonuclease and endonuclease) in bacterial supernatants; assay: Fluorescent DNA probe assay for DNA metabolism activity; format: biochemical; settings: supernatants of eight bacteria; excitation 485 nm, emission 538 nm; 37° C.
Description: Another method for detecting DNA metabolism activity is to generate synthetic colorimetric and fluorescent DNA probes that can indicate DNA hydrolysis (exonuclease and endonuclease activity). The method was carried out as follows. Two complementary oligonucleotides were generated. One oligonucleotide was labeled with self-quenching fluorescent labels, while the other primer remained unlabeled. The sequences of the oligonucleotides were as follows: Unlabeled Sequence 5′-[…]-3 (SEQ ID NO: 6); and Labeled Sequence FL-5′-[…]-3′-FL (SEQ ID NO: 7). […] The culture was spun down by centrifugation and the supernatant was collected. The fluorescent labeled primer and its unlabeled complement were dissolved in water at a concentration of approximately 1 mg/mL. The primers were heated to melting temperature for 2 minutes at 92° C., then allowed to anneal for 5 minutes at 43° C. After annealing, the DNA substrate was added to the reaction buffer (20 mM tris (pH 7.4) with 150 mM NaCl) and incubated at 37° C. for 10 minutes. The reaction was carried out with 7 μL of culture supernatant and 3 μL of DNA substrate in 100 μL total volume at 37° C. The reaction was followed using a fluorimetric plate reader using an excitation wavelength of 485 nm and an emission wavelength of 538 nm. […]

Pseudomonas protease = assay: Protease assay with modified version of papa1, bacterial supernatants; format: biochemical, Pseudomonas aeruginosa; settings: supernatants of eight bacteria; excitation 355 nm, emission 485 nm; FIG. 17A
Description: The protease assay described herein for detection of P. aeruginosa was run with the modified version of papa1. […] Each of the resulting cultures was spun down by centrifugation and the supernatant was collected. The assays were run in 20 mM tris buffer (pH 7.4) with 150 mM NaCl added. The reaction was carried out with 7 μL of supernatant and 3 μL of peptide substrate (5 mg/mL in water) in 100 μL total volume at 37° C. The reaction was followed on a fluorimetric plate reader using an excitation wavelength of 355 nm and an emission wavelength of 485 nm.

Pseudomonas = assay: Peptide on positively charged membrane exposed to Pseudomonas culture medium; format: biochemical; settings: FIG. 17C
Description: Electrostatic interactions make use of the charges on the peptide or chromophore to bind it to a surface to make a biosensor. For example, ion exchange membranes with a strong negative (ICE450) or positive (SB-6407) charge are available from Pall Gelman Laboratory, Ann Arbor, Mich. It is possible to bind the peptide substrates through interactions with their charged groups. The peptide substrate papa2, as described herein, was spotted onto a positively charged membrane and exposed to Pseudomonas culture medium.

[6] = test system: surface of Staphylococcus; assay: Binding of fluorescent peptide to the surface of Staphylococcus; settings: predicted
Description: Substrates for use in the present invention include any molecule, either synthetic or naturally-occurring that can interact with an enzyme of the present invention. Examples of substrates include those substrates described herein, as well as substrates for these enzymes that are known in the art. […] Such substrates described herein can be obtained from commercial sources, e.g., Sigma (St. Louis, Mo.), or can be produced, e.g., isolated or purified, or synthesized using methods known to those of skill in the art.

CCCCCCCCCC(=O)Oc1ccc([N+](=O)[O-])cc1 [p-nitrophenyl caprate]
color change (absorbance at 415 nm) [1]: showed a dramatic color change
color change (absorbance at 415 nm) (lipase from S. aureus): showed a dramatic color change
color change (absorbance at 415 nm) [2]: showed no color change
modification of labeled substrate on filter (yellow dye) [3]: Modification of the labeled substrate was detected
modification of labeled substrate on filter (yellow dye) (Staphylococcus aureus): no modification of the labeled substrate was detected
modification of labeled substrate on filter (yellow dye) (Streptococcus salivarius): no modification of the labeled substrate was detected

Edans - KAAHKSALKSAE - Dabcyl (Edans-KAAHKSALKSAE-{Dabcyl′}) [papa1, labeled peptide substrate of Pseudomonas aeruginosa, origin PepA]
enzymatic cleavage of peptide substrate (relative fluorescent intensity) [4]: cleaved
detection of P. aeruginosa in extracted wound fluid (relative fluorescence) (P. aeruginosa protease): samples containing P. aeruginosa were detectable

FL-5′-AGGAATTCAGTGGATCCTCGAGAGG-3′-FL (antisense CCTCTCGAGGATCCACTGAATTCCT; sense: DNA, backbone not given here; antisense: DNA, backbone and methylation of C not given here; further chemistry not fully specified) [labeled DNA probe]
DNA metabolic activity (relative fluorescence of labeled probe) [5]: detected specific DNA metabolic activity associated with Enterococcus

KKAS(E-edans)AAHKSALKSAE(K-dabcyl) (KKASE(EDANS)AAHKSALKSAEK(Dabcyl″)) [papa2, papa1 version with two lysine groups as tag for surface attachment]
cleavage of protease substrate (relative fluorescence), comparison of species (Pseudomonas protease): greatest fluorescence in the sample containing Pseudomonas
fluorescence upon cleavage on membrane (Pseudomonas): upon cleavage of the peptide yellow fluorescence

PGTKLYTVPW-pyrene [Alt derived fluorescent peptide]
change in fluorescence upon binding [6]: increase in fluorescence upon binding
